Results published in patent US9521846B2, “Template-fixed peptidomimetics with antimicrobial activity” (priority 2006, dated 2016).
Values after ≈ are worked out from the molar mass of the structure shown. Non-standard residues stand in square brackets, D forms with d. Residues, ends and D or L forms follow the SMILES beside them. Dab = NCC[C@H](N)C(=O)O

Tests used:
[1] = Plasma stability, human plasma; type: in vitro ADME
[2] = Plasma stability, rat plasma; type: in vitro ADME
[3] = tested on: human red blood cells (hRBC); experiment: Hemolysis; type: cell-based; settings: 100
[4] = tested on: Pseudomonas aeruginosa P1021903; type: cell-based; settings: P1021903
Summary of the method: (§1)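 Peptide activity was measured by a modified NCCLS broth microdilution method in Mueller-Hinton broth with 0.02% BSA. An inoculum adjusted against a 0.5 McFarland standard to about 10^6 CFU/ml was mixed 1:1 with two-fold serial peptide dilutions.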

[5] = tested on: Pseudomonas aeruginosa P1021913; type: cell-based; settings: P1021913
Summary of the method: as §1

[6] = tested on: Pseudomonas aeruginosa P8191900; type: cell-based; settings: P8191900
Summary of the method: as §1

[7] = tested on: Pseudomonas aeruginosa IMP 1 Livermore 3140; type: cell-based; settings: IMP 1 Livermore 3140
Summary of the method: as §1

P. aeruginosa ATCC 27853 = type: cell-based, Pseudomonas aeruginosa; settings: ATCC 27853
Summary of the method: as §1

[8] = tested on: Pseudomonas aeruginosa (ATCC 27853); experiment: In vivo septicemia assay; parameters: species or system CD-1 mice; settings: groups of 6 mice
Method: Groups of 6 CD-1 (Crl.) derived male mice weighing 24±2 g were used. The mice were each inoculated intravenously (IV) with an LD90-100 of Pseudomonas aeruginosa (ATCC 27853) (9×10^6 CFU/0.5 ml/mouse) in brain heart infusion broth without 5% mucin. Compound at doses of 5, 2.5, 1, 0.5, 0.25 and 0.1 mg/kg, vehicle (0.9% NaCl, 10 ml/kg) was administered subcutaneously (SC) to test animals at 1 hour after bacterial inoculation. Also, an additional group was treated twice with compound at a dose of 5 mg/kg at 1 and 6 hours after bacterial inoculation. Mortality was recorded once daily for 7 days following the bacterial inoculation and an increase of survival of the animals by 50 percent or more (^3 50%) after the bacterial inoculation, relative to vehicle control, indicates significant antimicrobial effect. The MED (ED50) was determined by nonlinear regression using Graph-Pad Prism (Graph Pad Software, USA).
Septicaemia experiment in mice: LD90-100 of Pseudomonas aeruginosa (ATCC 27853) (9×10^6 CFU/0.5 ml/mouse IV and after 1 h Ex. 1 s.c.
Septicaemia experiment in mice: LD90-100 of Pseudomonas aeruginosa (ATCC 27853) (9×10^6 CFU/0.5 ml/mouse IV), and after 1 and 5 h Ex. 40 s.c.
Septicaemia experiment in mice: LD90-100 of Pseudomonas aeruginosa (ATCC 27853) (9×10^6 CFU/0.5 ml/mouse IV), and after 1 and 5 h Ex. 50 s.c.

[9] = 0.1 mg/kg, 1 h after inoculation
[10] = 0.25 mg/kg, 1 h after inoculation
[11] = 0.5 mg/kg, 1 h after inoculation
[12] = 2.5 mg/kg, 1 h after inoculation

CC[C@H](C)[C@@H]1NC(=O)[C@H](Cc2c[nH]c3ccccc23)NC(=O)[C@H]([C@@H](C)O)NC(=O)[C@@H]2CCCN2C(=O)[C@H]2CCCN2C(=O)[C@H](CCN)NC(=O)[C@H](C)NC(=O)[C@H](CCN)NC(=O)[C@H](CCN)NC(=O)[C@H](Cc2c[nH]c3ccccc23)NC(=O)[C@H](CCN)NC(=O)[C@H](CCN)NC(=O)[C@H](CCCCN)NC(=O)[C@H](CCN)NC1=O [Example 1] (cyclo(TWI[Dab]K[Dab][Dab]W[Dab][Dab]A[Dab][dP]P))
Stability human Plasma t1/2 [1]: 5 h
Stability rat Plasma t1/2 [2]: 5 h
Hemolysis at 100 μg/ml [3]: 0.5%
MIC P. aeruginosa P1021903 [4]: 0.07 µg/mL (≈ 0.0443 µM)
MIC P. aeruginosa P1021913 [5]: 0.13 µg/mL (≈ 0.0822 µM)
MIC P. aeruginosa P8191900 [6]: 0.07 µg/mL (≈ 0.0443 µM)
MIC P. aeruginosa IMP1 Livermore 3140 [7]: 0.18 µg/mL (≈ 0.114 µM)
MIC P. aeruginosa ATCC 27853 (P. aeruginosa ATCC 27853): 0.03 µg/mL (≈ 0.019 µM)
Average MIC (P. aeruginosa): 0.10 µg/mL
Dead [8, 9]: 5
Survivors [8, 9]: 1
Dead [8, 10]: 5
Survivors [8, 10]: 1
Dead [8, 11]: 2
Survivors [8, 11]: 4
Dead ([8]; 1 mg/kg, 1 h after inoculation): 1
Survivors ([8]; 1 mg/kg, 1 h after inoculation): 5
Dead [8, 12]: 0
Survivors [8, 12]: 6
Dead ([8]; 5 mg/kg, 1 h after inoculation): 0
Survivors ([8]; 5 mg/kg, 1 h after inoculation): 6
Dead ([8]; 10 (2 × 5) mg/kg, 7 days): 0
Survivors ([8]; 10 (2 × 5) mg/kg, 7 days): 6
